{"source": "patent US9957257B2", "about": "“Amide compounds as 5-HT4 receptor agonists” (SUVEN LIFE SCIENCES LIMITED, priority 2015, dated 2018)", "key": {"sAPPα": {"tested_on": "sAPPα", "experiment": "Estimation of mice brain cortical sAPPα levels (ELISA)", "assay_type": "in vivo, Male C57BL/6J mice", "details": "1 mg/kg, s.c., 60 minutes post treatment", "protocol": "3. The supernatant was discarded and to the precipitate, 4 times volume (0.8 mL/200 mg tissues) of TBS was added.\n4. From the above centrifuged mixture the supernatant was discarded and 10 times volume of 6M Guanidine-HCl in 50 mM Tris buffer pH: 7.6 (500 μL/50 mg tissues) was added.\n5. […] From this 5 μL of supernatant solution was taken and diluted with 155 μL of EIA buffer (dilution factor 32).\nThe entire procedure was followed as described in the ELISA kit manual (Mouse/Rat sAPPα ELISA, Catalog Number: JP27415, Innovation Beyond Limits International, Hamburg, Germany).\nStatistical analyses were performed using the Graph Pad Prism (Version 4)."}, "Radial arm maze": {"experiment": "Radial arm maze", "assay_type": "in vivo, rats", "details": "p.o.", "text": "The cognition enhancing properties of test compounds of this invention were estimated by using this model.\nRadial arm maze consists of a central hub of 45 cm diameter. Each arm was of dimension 42.5×15×24 cm. The maze was elevated to a height of 1 m above the ground. The animals were placed on a restricted diet until they reached approximately 85% of their free feeding weight. During this diet restriction period animals were habituated to the novel feed (pellets). Once the rats reached approximately 85% of their free feeding weight, rats were habituated to the maze on the 1st and 2nd day. […] Animals were randomized on day 2. On the subsequent days the treatment was given as per the allotment. Each animal was introduced into the maze individually for a period of 10 minutes. The arms were baited only once and the animal had to learn the rule that repeated arm entries would not be rewarded. The trial ended once the rat had visited 16 arms or 10 minutes were over or all the pellets were eaten. The arm entries were recorded using the software. Once the trial was over the rat was removed and the maze was cleaned using soap water."}, "hERG": {"molecular_target": "T1, hERG (Homo sapiens, UniProt Q12809)", "T1 construct": "expressed in transfected cells; host or cells: HEK293 (hERG-HEK293)", "T1 sequence (Q12809 whole entry)": "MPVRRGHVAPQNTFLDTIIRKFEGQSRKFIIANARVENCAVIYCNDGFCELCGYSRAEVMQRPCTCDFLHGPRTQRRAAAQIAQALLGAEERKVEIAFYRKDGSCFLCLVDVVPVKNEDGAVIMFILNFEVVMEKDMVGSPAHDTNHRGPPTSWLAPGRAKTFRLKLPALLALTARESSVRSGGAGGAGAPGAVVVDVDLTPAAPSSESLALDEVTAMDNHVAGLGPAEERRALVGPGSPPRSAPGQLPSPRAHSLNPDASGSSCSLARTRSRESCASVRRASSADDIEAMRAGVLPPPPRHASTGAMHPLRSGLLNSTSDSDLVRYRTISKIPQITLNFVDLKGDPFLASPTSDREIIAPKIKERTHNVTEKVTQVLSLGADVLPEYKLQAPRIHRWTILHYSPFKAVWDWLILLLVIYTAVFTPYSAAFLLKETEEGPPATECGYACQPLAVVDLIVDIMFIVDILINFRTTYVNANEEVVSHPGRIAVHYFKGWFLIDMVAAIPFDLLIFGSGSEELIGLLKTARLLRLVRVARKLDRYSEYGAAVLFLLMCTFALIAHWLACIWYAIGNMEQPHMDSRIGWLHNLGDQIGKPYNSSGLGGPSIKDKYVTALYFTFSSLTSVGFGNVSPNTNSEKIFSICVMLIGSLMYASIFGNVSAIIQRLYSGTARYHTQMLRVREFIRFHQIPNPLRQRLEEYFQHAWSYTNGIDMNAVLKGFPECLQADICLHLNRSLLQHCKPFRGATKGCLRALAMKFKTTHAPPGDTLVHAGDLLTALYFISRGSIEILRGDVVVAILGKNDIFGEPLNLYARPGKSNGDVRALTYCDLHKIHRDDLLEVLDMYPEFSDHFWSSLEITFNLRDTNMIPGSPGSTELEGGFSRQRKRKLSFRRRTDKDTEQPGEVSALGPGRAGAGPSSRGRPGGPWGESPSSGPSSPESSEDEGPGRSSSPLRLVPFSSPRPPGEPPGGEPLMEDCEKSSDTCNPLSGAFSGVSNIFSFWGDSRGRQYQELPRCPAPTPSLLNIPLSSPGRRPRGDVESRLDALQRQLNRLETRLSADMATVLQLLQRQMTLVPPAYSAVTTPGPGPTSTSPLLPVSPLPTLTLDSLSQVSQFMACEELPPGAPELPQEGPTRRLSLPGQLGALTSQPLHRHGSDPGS", "experiment": "Automated hERG patch clamp assay", "assay_type": "cell-based", "details": "hERG-HEK293 cells, whole cell patch clamp", "protocol": "To study the cardiac safety of test compounds using automated hERG patch clamp assay, hERG-HEK293 cells were grown to 70% confluency and were harvested using accumax. The cells were then suspended in complete media and were incubated at 37° C. and 5% CO2 for 30 minutes before using these cells for the whole cell patch clamp assay. Whole cell patch clamp recordings were conducted on Nanion's Patchliner using I-V protocol of voltage step from holding potential of −80 mV to +40 mV for 500 ms and then to test potential for 500 ms and back to holding potential of −80 mV. Pulses were elicited every 10 seconds. Each test compound concentration was incubated for 5 minutes. Data analysis was done by plotting the raw data using Igor Pro software and IC50 values were calculated. Cells with resistance >1 Gohms and tail currents of >200 pA were taken into consideration for data analysis. Quinidine was used as positive control."}, "acetylcholine": {"tested_on": "acetylcholine", "experiment": "Modulation of acetylcholine from the ventral hippocampus (microdialysis)", "assay_type": "in vivo, male Wistar rats", "details": "1.0 mg/kg, p.o.", "text": "Male Wistar rats (240-300 grams) were stereotaxically implanted with a microdialysis guide cannula in ventral hippocampus (AP: −5.2 mm, ML: +5.0 mm, DV: −3.8 mm). Co-ordinates were taken according to Paxinos and Watson (2004) with reference points taken from bregma and vertical from the skull. The rats were allowed to recover individually for four to five days in a round bottom Plexiglas bowl with free access to feed and water.\nOne day prior to the microdialysis experiment, rats were connected to a dual quartz lined two-channel liquid swivel (Instech, UK) on a counter balance lever arm, which allowed unrestricted movements of the animal. […]\nA stabilization period of 2 h was maintained and five basal samples were collected at 20 minutes intervals. […] Dialysates were stored below −70° C. until quantitation of acetylcholine.\nAcetylcholine in dialysate was quantified in the calibration range of 0.103 nmol-103.491 nmol using LC-MS/MS method.\nAll microdialysis data were plotted as percent change from mean dialysate basal concentrations with 100% defined as the average of five pre-dose values. The AUC was calculated by trapezoidal rule using WinNonlin (5.0.1 version, Pharsight Corp. CA). The statistical significance between the mean AUC values of treatment groups with vehicle was calculated using one-way ANOVA followed by Dunnett's test. […]"}, "[1]": {"experiment": "Object recognition task model", "assay_type": "in vivo, Male Wistar rats", "details": "0.1 mg/kg, p.o.", "protocol": "The cognition enhancing properties of compounds of this invention were estimated by using this model.\nMale Wistar rats (230-280 grams) were used as experimental animals. Four animals were housed in each cage. Animals were kept on 20% food deprivation before one day and given water ad libitum throughout the experiment and maintained on a 12 hours light/dark cycle. Also the rats were habituated to individual arenas for 1 hour in the absence of any objects.\nOne group of 12 rats received vehicle (1 mL/Kg) orally and another set of animals received compound of the formula (I) either orally or i.p., before one hour of the familiar (T1) and choice trial (T2).\nThe experiment was carried out in a 50×50×50 cm open field made up of acrylic. In the familiarization phase, (T1), the rats were placed individually in the open field for 3 minutes, in which two identical objects (plastic bottles, 12.5 cm height×5.5 cm diameter) covered in yellow masking tape alone (a1 and a2) were positioned in two adjacent corners, 10 cms from the walls. After 24 hours of the (T1) trial for long-term memory test, the same rats were placed in the same arena as they were placed in T1 trial. Choice phase (T2) rats were allowed to explore the open field for 3 minutes in presence of one familiar object (a3) and one novel object (b) (Amber color glass bottle, 12 cm high and 5 cm in diameter). Familiar objects presented similar textures, colors and sizes. During the T1 and T2 trial, explorations of each object (defined as sniffing, licking, chewing or having moving vibrissae whilst directing the nose towards the object at a distance of less than 1 cm) were recorded separately by stopwatch. Sitting on an object was not regarded as exploratory activity, however, it was rarely observed.\nT1 is the total time spent exploring the familiar objects (a1+a2).\nT2 is the total time spent exploring the familiar object and novel object (a3+b).\nThe object recognition test was performed as described by Behaviour Brain Research, 31 (1988), 47-59."}}, "data": [{"compound": "CC(C)(O)CN1CCC(F)(CNC(=O)c2cc(Cl)c(N)c3ccoc23)CC1", "note": "[Example 50, 4-Amino-5-chloro-N-{[4-fluoro-1-(2-hydroxy-2-methylpropyl)-4-piperidinyl]methyl}benzofuran-7-carboxamide L(+)-tartarate]", "values": [{"measurement": "increase in mice brain cortical sAPPα levels", "setting": "sAPPα", "value": 44, "unit": "%"}, {"measurement": "Reversal of Scopolamine Induced amnesia - Effective dose range", "setting": "Radial arm maze", "value": "1 mg/kg, p.o."}, {"measurement": "IC50", "setting": "hERG", "value": "> 10", "unit": "µM"}, {"measurement": "Area under the curve increase, hippocampal acetylcholine", "setting": "acetylcholine", "value": 31, "unit": "%"}, {"measurement": "increase in acetylcholine levels from ventral hippocampus", "setting": "acetylcholine", "value": 51, "unit": "%"}, {"measurement": "Exploration time mean ± S.E.M, Familiar object", "setting": "[1]", "value": "9.89 ± 1.49", "unit": "s"}, {"measurement": "Exploration time mean ± S.E.M, Novel object", "setting": "[1]", "value": "18.58 ± 2.44", "unit": "s"}, {"measurement": "Inference", "setting": "[1]", "value": "Active"}]}]}
